Assay results as given in US7053095B2, “Triazole compounds as transforming growth factor (TGF) inhibitors” (Pfizer Inc., priority 2002, dated 2006).

Biological target: T1, TβRI (ALK-5) (Homo sapiens, UniProt P36897)
T1 construct: with same assay conditions using either the kinase domain of ALK5 with Smad3 as substrate; GST
T1 sequence (P36897 205-495 limits assumed): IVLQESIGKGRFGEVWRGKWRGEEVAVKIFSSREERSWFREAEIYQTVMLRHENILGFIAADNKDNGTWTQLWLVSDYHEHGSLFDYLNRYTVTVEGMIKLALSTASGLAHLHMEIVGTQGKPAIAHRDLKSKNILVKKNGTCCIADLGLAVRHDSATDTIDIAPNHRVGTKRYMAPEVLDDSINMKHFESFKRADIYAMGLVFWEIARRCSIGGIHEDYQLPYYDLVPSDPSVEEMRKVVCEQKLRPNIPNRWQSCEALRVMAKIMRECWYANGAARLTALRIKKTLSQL
Assay: ALK-5 (TβRI) kinase assay
Assay type: biochemical
Method: ALK-5 (TβRI) Kinase Assay Protocol
The kinase assays were performed with 65 nM GST-ALK5 and 84 nM GST-Smad3 in 50 mM HEPES, 5 mM MgCl2, 1 mM CaCl2, 1 mM dithiothreitol, and 3_M ATP. Reactions were incubated with 0.5_Ci of [33 P]_ATP for 3 h at 30° C. Phosphorylated protein was captured on P-81 paper (Whatman, Maidstone, England), washed with 0.5% phosphoric acid, and counted by liquid scintillation. Alternatively, Smad3 or Smad1 protein was also coated onto FlashPlate Sterile Basic Microplates (PerkinElmer Life Sciences, Boston, Mass.). Kinase assays were then performed in Flash-Plates with same assay conditions using either the kinase domain of ALK5 with Smad3 as substrate or the kinase domain of ALK6 (BMP receptor) with Smad1 as substrate. Plates were washed three times with phosphate buffer and counted by TopCount (Packard Bio-science, Meriden, Conn.). (Laping, N.J. et al. Molecular Pharmacology 62:58–64 (2002)).

IC50: ~58 nM
Compound: Cc1cccc(-c2n[nH]nc2-c2ccc3nnc(C)n3c2)n1 [Example 2, 3-Methyl-6-[5-(6-methyl-pyridin-2-yl)-2H-[1,2,3]triazol-4-yl]-[1,2,4]triazolo[4,3-a]pyridine]
